Experimental data reported in patent US10858384B2, “Synthetic molecule constructs” (KODE BIOTECH LIMITED, priority 2004, dated 2020).

Legend:
[1] = Solubility of synthetic glycolipids in hot PBS; type: physicochemical; settings: hot PBS
From the text: In the context of this description the phrase “water soluble” means a stable, single phase system is formed when the synthetic molecule construct is contacted with water or saline (such as PBS) in the absence of organic solvents or detergents, and the term “solution” has a corresponding meaning.
For use in the transformation of cells the first criterion that synthetic glycolipids must satisfy is that they are soluble in aqueous solvents, e.g. phosphate buffered saline.
Initial tests on the molecules were to establish solubility and thus eliminate those molecules that were unsuitable for use in the transformation of cells.

[2] = system: RBCs; assay: Detectable transformation ability of synthetic glycolipids (agglutination); type: cell-based; settings: agglutination with the appropriate antibody
From the text: The synthetic glycolipid must also be able to insert into the membrane and be recognisable to the appropriate antibody for transformation to be detected by agglutination. Initial tests on the molecules were to establish solubility and thus eliminate those molecules that were unsuitable for use in the transformation of cells.

[3] = system: RBCs; assay: Evaluation of insertion of different lipid tails by agglutination with the relevant antisera; type: cell-based; set-up: scale not given here; settings: second series
From the text: Transformation of RBCs with synthetic glycolipids with different lipid tails was first evaluated (Tables 22 and 24).

[4] = system: RBCs; assay: Insertion efficiency: post-transformation supernatant solutions, tube serology; type: cell-based
Description: The post-transformation supernatant solutions (from Atri-sp-Ad-DOPE (I) at 0.08 mg/mL, 0.05 mg/mL and 0.03 mg/mL, and Btri-sp-Ad-DOPE (VI) at 0.6 mg/mL, 20 μL) were added neat and in a 1:2 dilution to washed, packed RBCs (60 μL). The tubes were incubated in a 37° C. waterbath for one hour, with mixing taking place every 15 minutes.
The transformed RBCs were washed 3× with PBS and then suspended in Cellstab™ at the appropriate concentration for serology testing.

[5] = system: RBCs; assay: Insertion efficiency: post-transformation solutions concentrated 20x, Diamed serology; type: cell-based; settings: post-transformation solution concentrated 20×, from 0.60 mg/mL
Description: In addition, the post-transformation solutions were concentrated 20× and compared in parallel with the transformation solutions of known concentration. Only the post-transformation solutions derived from the 0.08 mg/mL Atri-sp-Ad-DOPE (I) and 0.6 mg/mL Btri-sp-Ad-DOPE (VI) solutions were tested.
Post-transformation solutions (20 μL) were dialysed (pore size 500 Da) against de-ionised water for 2 days. The samples were left to dry in a fumehood for 10 days. At the end of this time they were transferred into a rotavapor flask and set on the rotavapor to rotate under vacuum with no heat overnight. Samples were dried in a water bath at 40° C. and washed over into smaller vessels with chloroform-methanol 2:1 leaving significant amounts of dried cellular material. The chloroform-methanol 2:1 washings were dried down, washed over again into test-tubes with chloroform-methanol 2:1 and dried down. These samples were redissolved in 1 mL of 1× PBS and used for transformation experiments. The cellular material in the bottom of the flasks was washed out with water into another set of tubes.
The post-transformation solutions (from Atri-sp-Ad-DOPE (I) at 0.08 mg/mL and Btri-sp-Ad-DOPE (VI) at 0.6 mg/mL, 20 μL) were added to washed, packed RBCs (60 μL). […]

[6] = system: group O red blood cells (RBCs); assay: Tube serology of group O RBCs transformed at 37° C. with synthetic glycolipids; type: cell-based, human; settings: 0.25 mg/mL, Day 44
Description: (§1) Washed packed group O red blood cells (RBCs) (3 parts by volume) and the synthetic glycolipid solution (1 part by volume, varying concentrations) were added to an eppendorf tube. The tube was incubated in a 37° C. waterbath for one hour, mixing every 15 minutes. […]
(§2) Tube serology and Diamed gel-card results for RBCs transformed with the different synthetic molecule constructs are provided in Table 38. Results for the stability of the RBCs transformed with the different synthetic glycolipids at different concentrations are provided in Tables 39 to 44.

[7] = system: group O red blood cells (RBCs); assay: Diamed gel-card agglutination of group O RBCs transformed at 37° C. with synthetic glycolipids; type: cell-based, human; set-up: scale not given here; settings: 0.25 mg/mL; Day 116; Cellstab
Description: as §1, §2

[8] = system: embryos; assay: Embryo modification, test for insertion by fluorescence; type: cell-based
Description: The embryo zona pellucida was removed by treating embryos with 0.5% pronase in a 37° C. oven for 6 minutes or until all zonas were removed. Micro-drops were prepared by adding 5 μl of synthetic glycolipid Atri-sp-Ad-DOPE (I) or Btri-sp-Ad-DOPE (VI), at a concentration of 1 mg/mL to a 45 μl drop of M2 media overlaid with mineral oil. All embryo groups were incubated in the 50 μl micro-drops for 1 hour at 37° C. Embryos from experimental and control groups were washed 3× with M2 media.
Embryos from experimental and control groups were placed into a micro-drop of corresponding antibody and incubated for 30 min at 37° C. Embryos from experimental and control groups were washed 3× with M2 media.
Embryos from all experimental and control groups were placed into micro-drops of anti-mouse Ig FITC (1:50 dilution anti-mouse Ig FITC in M2) and incubated for 30 min at 37° C. Embryos from experimental and control groups were washed 3× with M2 media. Embryos were mounted on microscope slides in a 5 μl drop of M2 and the drops overlaid with oil.
The slides were viewed under a fluorescence microscope.

[9] = system: endometrial cells and embryos; assay: Attachment of transformed endometrial cells to modified embryos; type: cell-based; settings: 15 minutes at 37° C.
Description: Modified embryos (BioG-Avidin-BioIgG^B and BioG-Avidin-BioIgM^A) were prepared in accordance with the methods described in the specification accompanying the international application no. PCT/NZ03/00059 (published as WO03/087346).
Two concave glass slides were prepared, one with two wells of synthetic glycolipid Atri-sp-Ad-DOPE (I) inserted endometrial cells and the other with two wells of synthetic glycolipid Btri-sp-Ad-DOPE (VI) inserted endometrial cells.
The embryos were surrounded with endometrial cells. The wells were covered with mineral oil and incubated for 15 minutes at 37° C. Using a wide bore handling pipette each group of embryos were carefully transferred to a fresh drop of M2 media. The embryos were gently washed. The embryos were gently transferred into 2 μL of M2 media on a marked microscope slide. Each drop was overlaid with mineral oil
Under a central plane of focus on an Olympus microscope the number of endometrial cells adhered to the embryos in each group was assessed. The number of cells adhered to each embryo was recorded.

With CCCCCCCC/C=C\CCCCCCCC(=O)OC[C@H](COP(=O)(O)OCCNC(=O)CCCCC(=O)NCCCO[C@@H]1O[C@H](CO)[C@H](O)[C@H](O[C@H]2O[C@H](CO)[C@H](O)[C@H](O)[C@H]2O)[C@H]1O[C@@H]1O[C@@H](C)[C@@H](O)[C@@H](O)[C@@H]1O)OC(=O)CCCCCCC/C=C\CCCCCCCC [Btri-sp-Ad-DOPE (VI)] the Water solubility [1] was “Yes”, the Detectable transformation ability [2] was “Yes” and the Agglutination score ([3]; 60 μg/mL, Alba anti-B) was 0. For the same molecule, the Agglutination score ([3]; 60 μg/mL, Bio anti-B) was 0, the Agglutination score ([3]; 125 μg/mL, Alba anti-B) was 0 and the Agglutination score ([3]; 125 μg/mL, Bio anti-B) was 0. For the same molecule, the “Score (tube serology)” value ([4]; 1:2, pre-trans conc 0.60 mg/mL) was 0, the “Score (tube serology)” value ([4]; neat, pre-trans conc 0.60 mg/mL) was “vw+” and the “Score (Diamed serology)” value [5] was 0. For the same molecule, the “Agglutination, manual tube serology, Bioclone anti-B” value ([6]; Alsevers) was “w+”, the “Agglutination, manual tube serology, Bioclone anti-B” value ([6]; Cellstab) was “^‡” and the “Agglutination, Diamed gel-cards, Albaclone anti-B” value [7] was 0. The “Transformation of embryos visualised by fluorescence” value ([8]; 1 mg/mL stock in micro-drop, 1 hour 37° C.) was “negative result”, the “Fluorescence score after incubation with IgFITC Probe” value ([8]; embryos, inserted antigen 1 mg/mL, 1 hour at 37° C., 1° antibody Anti-B Bioclone, anti-mouse Ig FITC 1:50) was 0 and the “Average number of endometrial cells attached to modified embryos” value ([9]; embryos modified with BioG-Avidin-BioIgG^B) was 6.7. The “Average number of endometrial cells attached to modified embryos” value ([9]; embryos modified with BioG-Avidin-BioIgM^A) was 3.4.
